Key:
Type in all cases: binding
MT2 [1] = biological target: T1, MT2 (Homo sapiens, UniProt P02795); assay: Zn(II) release followed with PAR; adducts by ESI-MS and top-down MS; details: 1 uM Zn(II)-loaded MT2, 80 uM ajoene, 100 uM PAR, 50 mM HEPES, 100 mM NaCl, pH 7.4, 25 °C; covalent (Cys within residues 29-53)
T1 construct: gene MT2A; full-length recombinant, intein/chitin tag (pTYB21) cleaved by DTT, from E. coli BL21(DE3)pLysS; Zn7-loaded (Zn7MT2)

MT3 = biological target: T2, MT3 (Homo sapiens, UniProt P25713); assay: Zn(II) release followed with PAR at […] nm; details: 1 uM Zn(II)-loaded MT, 80 uM allicin, 200 uM PAR, 50 mM HEPES, 100 mM NaCl, pH 7.4, 25 °C; covalent (Cys S-thioallylation)
T2 construct: full-length recombinant, intein/chitin tag (pTYB21) cleaved by DTT, from E. coli BL21(DE3)pLysS; Zn7-loaded
T2 sequence (P25713 whole entry): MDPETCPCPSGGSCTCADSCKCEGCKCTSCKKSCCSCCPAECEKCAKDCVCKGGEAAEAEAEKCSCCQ

MT1a = biological target: T3, MT1a (Homo sapiens, UniProt P04731); assay: Zn(II) release followed with PAR at […] nm; details: 1 uM Zn(II)-loaded MT, 80 uM allicin, 200 uM PAR, 50 mM HEPES, 100 mM NaCl, pH 7.4, 25 °C; covalent (Cys S-thioallylation)
T3 construct: full-length recombinant, intein/chitin tag (pTYB21) cleaved by DTT, from E. coli BL21(DE3)pLysS; Zn7-loaded
T3 sequence (P04731 whole entry): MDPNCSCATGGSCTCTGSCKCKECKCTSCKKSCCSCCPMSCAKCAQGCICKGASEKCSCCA

MT4 = biological target: T4, MT4 (Homo sapiens, UniProt P47944); assay: Zn(II) release followed with PAR at […] nm; details: 1 uM Zn(II)-loaded MT, 80 uM allicin, 200 uM PAR, 50 mM HEPES, 100 mM NaCl, pH 7.4, 25 °C; covalent (Cys S-thioallylation)
T4 construct: full-length recombinant, intein/chitin tag (pTYB21) cleaved by DTT, from E. coli BL21(DE3)pLysS; Zn7-loaded
T4 sequence (P47944 whole entry): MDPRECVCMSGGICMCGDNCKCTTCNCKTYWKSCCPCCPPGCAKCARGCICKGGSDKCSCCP

MT2 [2] = biological target: T1, MT2; assay: Zn(II) release followed with PAR; adducts by ESI-MS and top-down MS; details: 1 uM Zn(II)-loaded MT2, 80 uM allicin, 100 uM PAR, 50 mM HEPES, 100 mM NaCl, pH 7.4; covalent (S-thioallylation, Cys within residues 19-30)

T1 sequence (P02795 whole entry, the tested form may be a part): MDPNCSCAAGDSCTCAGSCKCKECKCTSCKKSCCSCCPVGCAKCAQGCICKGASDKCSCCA

| Zn(II) mol. eq. dissociated after 60 min (MT2 [1]) | Zn(II) mol. eq. dissociated after 60 min (MT3) [mol. eq.] | Zn(II) mol. eq. dissociated after 60 min (MT1a) [mol. eq.] | Zn(II) mol. eq. dissociated after 60 min (MT4) [mol. eq.] | Zn(II) mol. eq. dissociated after 1 h (MT2 [2]) [mol. eq.] | Structure (SMILES) |
| --- | --- | --- | --- | --- | --- |
| almost 6 |  |  |  |  | C=CCSSC=CC[S+]([O-])CC=C (centres unmarked) [ajoene] |
|  | 5.2 | 5 | 2.8 | 5.3 | C=CCS[S+]([O-])CC=C (centres unmarked) [allicin] |

— PMC12507958, “Modification of human metallothioneins by garlic organosulfur compounds, allicin and ajoene: direct effect on zinc homeostasis with relevance to immune regulation” (Biometals, 2025)
